What all share (test): NCI tumour cell line growth inhibition, 48 h
Test [1] has as its system IGROV1 ovarian.
The subject of test [2] is SK-MEL-2 melanoma.
Test [3] relates to HCT-15 colon.
The subject of test [4] is OVCAR-4 ovarian.
Test [5] has as its system OVCAR-3 ovarian.
The test system of test [6] is K-562 leukemia.
In test [7] the test system is MOLT-4 leukemia.
The test system of test [8] is UACC-62 melanoma.
For test [9], the system named is OVCAR-8 ovarian.
Test [10] concerns UO-31 renal.

Where “and” joins values, the source holds several entries; their conditions need not be identical. Equal values may be shown once.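 Method: 48-hour compound exposure of cells in 96-well plates, five concentrations, linear interpolation of endpoints. Here, GI50 denotes the concentration required for 50% inhibition of growth. At the TGI there is no net growth.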

On to `CNC(=O)c1ccccc1Nc1nc(Nc2ccc(N3CCOCC3)cc2OC)ncc1Cl`, for which the GI50 in [1] was 277 nM; in test [2], 274 nM; in test [3], 542 nM; in test [4], 1950 nM; in [5], 1730 nM; in test [6], 4.75 µM. The GI50 in test [7] is 1850 nM; in [8], 0.239 µM; in test [9], 2290 nM; in test [10], 400 nM. Further, the TGI in test [1] is 2.15 µM; in [2] it was 2.5 µM; in test [3], over 40.8 µM; in [4], over 47.1 µM; in test [5], over 53.3 µM; in test [6], over 90.5 µM. Besides, the TGI in test [7] is over 63.7 µM; in test [8], 2.73 µM; in test [9] it was over 100 µM; in test [10] it was 4.44 µM.
As to `Fc1ccc(Nc2ncnc3ccc(-c4cnc5[nH]ccc5c4)cc23)cc1Cl`, the GI50 is 450 nM in test [1]; 16600 nM in test [2]; 3240 nM in test [3]; 1510 nM in test [4]; 1510 nM in test [5]; 3.48 µM in test [6]. For the same compound, the GI50 is over 20800 nM in [7], 6.06 µM in test [8], 2940 nM in test [9] and 600 nM in [10]. Also, the TGI is 3.41 µM in [1]; 68.2 µM in [2]; over 76.5 µM in test [3]; 3.92 µM in test [4]; 3.73 µM in test [5]; over 100 µM in test [6]. For the same compound, the TGI in test [7] was over 100 µM; in test [8] it was 63.3 µM; in [9] it was 14.9 µM; in test [10] it was 2.38 µM.
Consider `Nc1cc2nc3ccccc3sc-2cc1=O`, for which the GI50 in [1] was 3020 nM; in test [2], 2030 nM; in test [3] it was 1440 nM; in test [4], 2150 nM; in test [5], 1760 nM; in [6], 2.48 µM. Besides, the GI50 in [7] was 4260 nM; in test [8], 1.55 µM; in test [9], 3170 nM; in test [10], 1330 nM. In addition, the TGI in test [1] was 13.1 µM; in test [2], 4.24 µM; in test [3], 11.1 µM; in test [4] it was 6.21 µM; in test [5], 7.09 µM; in test [6], over 100 µM. Further, the TGI is over 100 µM in test [7], 3.33 µM in [8], 13.8 µM in test [9] and 3.36 µM in test [10].
Consider `CC(C)c1ccc(C(C)C(=O)N(CC2=C(C(C)c3ccccn3)c3ccccc3C2)C(C)C)cc1` (stereo not drawn), for which the GI50 in [1] is 2770 nM; in test [2], 2550 nM; in test [3], 2840 nM; in test [4], 3070 nM; in test [5], 3260 nM; in [6], 2.39 µM. Moreover, the GI50 in test [7] is 2460 nM; in test [8], 8.79 µM; in test [9], 3820 nM; in [10], 1530 nM. In addition, the TGI is 31.3 µM in test [1]; 7.15 µM in test [2]; 18 µM in test [3]; 86.7 µM in test [4]; 11.6 µM in test [5]; 15 µM in test [6]. The TGI was 13.1 µM in test [7], 37.6 µM in test [8], over 100 µM in test [9] and 7.29 µM in [10].
In the case of `COc1c2ccoc2c(/C=C/C=O)c2oc(-c3ccccc3)cc(=O)c12`, the GI50 in test [1] is 17500 nM; in test [2], 10600 nM; in test [3] it was 2520 nM; in test [4], 3200 nM; in test [5] it was 5190 nM; in [6], 3.21 µM. Besides, the GI50 in test [7] is 2060 nM; in test [8], 5.45 µM; in [9], 2860 nM; in test [10] it was 3620 nM. Moreover, the TGI was over 100 µM in test [1]; over 100 µM in test [2]; 9.06 µM in [3]; over 100 µM in test [4]; 21.7 µM in test [5]; over 100 µM in test [6]. The TGI in test [7] is 5.24 µM; in test [8] it was 22.7 µM; in test [9], over 100 µM; in test [10], 35.2 µM.
In the case of `COC(=O)[C@@H](C)C[C@H](Cc1ccc(F)cc1)NC(=O)c1csc([C@@H](C[C@H](C(C)C)N(C)C(=O)[C@@H](NC(=O)[C@H]2CCCCN2C)C(C)C)OC(C)=O)n1`, the TGI in test [1] was over 16.7 µM; in test [2], over 16.7 µM; in test [3] it was over 16.7 µM; in [4], over 16.7 µM; in [5], 0.00216 µM and 0.012 µM; in test [6], over 16.7 µM. Also, the TGI in test [7], in test [8], in test [9] and in test [10] was over 16.7 µM in each case. The GI50 in test [2] was 0.792 nM and 5.03 nM; in [7], 2.45 nM and 8.76 nM; in [9], 2.56 nM and 11.6 nM.
For `Cc1ccc(-c2nnc(-c3ccc4ccccc4c3)o2)cc1`, the TGI is over 100 µM in test [1]; over 32.6 µM in test [2]; over 100 µM in [3]; over 100 µM in [4]; over 100 µM in test [5]; over 51.2 µM in test [6]. The TGI in test [7] is over 26.6 µM; in test [8] it was over 85.6 µM; in test [9], over 100 µM; in [10], over 100 µM.

The values above are taken from PubChem BioAssay (NCI).
